# Source: patent publication US10973815B2, “Delta opioid agonist mu opioid antagonist compositions and methods for treating Parkinsons disease” (priority 2016, dated 2021)
# Entries after “also recorded” stand apart in the source; their conditions may differ.
# Tests used:
# [1] = system: L-DOPA naïve MPTP-lesioned macaques; test: Monotherapy with Formula (i) in L-DOPA naïve MPTP-lesioned macaques; type: in vivo, Macaca fascicularis
# Procedure: This activity is measured by an infra-red movement detector and captures all movement, normal and abnormal. MPTP-lesioned cynomolgus monkeys received acute oral administration of either vehicle or Formula (i) (1, 10 or 20 mg/kg) according to a randomized incomplete Latin Square-type. Levels of activity were assessed every minute over the entire 6 h observation. […] (FIG. 1A; time-course) or cumulated shown in FIG. 1B for 0-3 h; or FIG. 1C for 3-6 hr. N=8 for all treatment groups. */**/*** represents P<0.05, P<0.01 or P<0.001 cf. vehicle-treatment; 2-way RM ANOVA (FIG. 1A) or 1-way RM-ANOVA with Holm-Sidak's Multiple Comparison test (FIGS. 1B and C) (ns—not significant).
# MPTP-lesioned cynomolgus monkeys received acute oral administration of either vehicle or Formula (i) (1, 10 or 20 mg/kg) according to a randomized incomplete Latin Square-type. Levels of bradykinesia were assessed every 10 min over the entire 6 h observation and total duration of ON-time (minutes for which bradykinesia was absent) was calculated. Data are mean±s.e.m. N=8 for all treatment groups. All P>0.05, cf vehicle-treatment; 1-way, RM-ANOVA with Holm-Sidak's Multiple Comparison test.
# Parkinsonian disability is scored by a trained neurologist who is blinded to treatment allocation but is trained to differentiate normal from abnormal movements and is able to distinguish diminution of Parkinsonian disability from dyskinetic (abnormal) movements. MPTP-lesioned cynomolgus monkeys received acute oral administration of either vehicle or Formula (i) (1, 10 or 20 mg/kg) according to a randomized incomplete Latin Square-type. Levels of parkinsonian disability were assessed every 10 min over the entire 6 h observation. […] N=8 for all treatment groups. */P<0.05 cf. vehicle-treatment; 2-way RM ANOVA of ranked data (FIG. 5A) or 1-way RM-ANOVA with Holm-Sidak's Multiple Comparison test (FIGS. 5B and C).
# Eight cynomolgus monkeys (Macaca fascicularis, 6.4-6.8 years of age, 2.8-4.2 kg were used in this study. Animals were housed two or three per cage in the same housing room. The housing rooms were subject to a 12 hour light-dark cycle (lights on 7 a.m.), temperature 20-25° C. in a room containing only animals of the same sex. Fresh fruit, primate pellets and water were available ad libitum other than at times of overnight fasting prior to PK or behavioral assessment days.
# The animals were rendered parkinsonian via once-daily subcutaneous injection of MPTP (0.2 mg/kg), administered for between 9 and 12 days, until the appearance of parkinsonism symptoms. After this time, a parkinsonian syndrome reached a moderate to marked level, over approximately 30 days, and stabilized. […] L-DOPA naïve animals have received no L-DOPA and those showing established motor complication have received L-DOPA in an amount 25 mg/kg orally twice daily for at least 2 months. L-DOPA is given with the decarboxylase inhibitor benserazide (as Madopar™).
# [2] = system: MPTP-lesioned cynomolgus macaques; test: Acute DPI-289 in combination with low-dose L-DOPA, versus high-dose L-DOPA, in MPTP-lesioned macaques with L-DOPA-induced dyskinesia; type: in vivo, Macaca fascicularis
# Text: This study utilized female MPTP-lesioned cynomolgus macaques that have received chronic repeat-treatment with L-DOPA and manifested stable and reproducible dyskinesia, of choreic and dystonic nature, in response to subsequent L-DOPA-treatments. Eight cynomolgus monkeys (Macaca fascicularis, 7.6-13.1 years of age, 3.0-4.5 kg) were used in this study. In a prior experiment, for each individual animal a low and high dose of L-DOPA was established such that the low dose (LD1) provided modest anti-parkinsonian action (1-2 h) and elicited predominantly non-disabling dyskinesia, the high dose (LDh) provided the best anti-parkinsonian effect achievable but also elicited disabling dyskinesia and an anti-parkinsonian benefit of 2-3 h duration
# The behavioral effects of acute DPI-289 administered in combination with low-dose L-DOPA (LD1) were assessed. Also higher dose of L-DOPA was also assessed without the addition of DPI-289. The low dose (LD1) was about 10 to 11 mg/kg of L-DOPA which is considered to be sub-optimal in terms of anti-parkinsonian benefit. The dose of DPI-289 was 20 mg/kg and the high dose of L-DOPA was about 30 to 31 mg/kg and considered to an optimal does in terms of anti-parkinsonian benefit but with disabling dyskinesia. The DPI-289 was administered one (1) hour prior to the L-DOPA and start of observation. Activity counts were collected and parkinsonian disability and dyskinesia was assessed via post-hoc analysis of video-recordings by a movement disorder neurologist blinded to treatment.
# On the day before behavioral observations, food was removed overnight, from 5 p.m. On days of behavioral assessment, treatment was administered to the animals in their home cage at approximately 9 a.m. A 6 h period of observation then commenced 1 h after oral dosing.
# The animals were rendered parkinsonian by once daily subcutaneous injection of 0.2 mg/kg MPTP, administered for 8-12 days, until the first appearance of parkinsonism symptoms. After this time, a parkinsonian syndrome reached a moderate to marked level, over approximately 30 days, and stabilized. Additional administrations of MPTP were given to some animals to titrate to similar degrees of parkinsonism in individuals across the group. […] Sixty days after commencing MPTP administration, L-DOPA (25 mg/kg) was administered orally twice daily for at least two months. L-DOPA was given with the decarboxylase inhibitor benserazide (as Madopar™). This treatment leads to the development of motor fluctuations, including dyskinesia.
# [3] = system: unilateral 6-OHDA-lesioned Rats; test: Postural asymmetry and dyskinesia (AIMs) on repeated dosing in unilateral 6-OHDA-lesioned rats; type: in vivo, rat; conditions: 3 mg/kg p.o. daily for 15 days
# [4] = 1, 10 or 20 mg/kg oral, Friedman test
# [5] = any dose assessed (1, 10, 20 mg/kg oral)
# [6] = DPI-289 20 mg/kg in combination with low-dose L-DOPA
smiles,measurement,setting,value
"CCN(CC)C(=O)c1ccc(C(c2cccc(O)c2)N2C[C@@H](C)N(Cc3cccc(F)c3)C[C@@H]2C)cc1 (stereo partly drawn) [DPI-289, 4-((alpha-R)-alpha-((2S,5R)-2,5-Dimethyl-4-(3-fluorobenzyl)-1-piperazinyl)-3-hydroxybenzyl)-N,N-diethylbenzamide]",total duration of ON-time (mean),"[1]; 1 mg/kg oral, 6 h observation",46 ± 48 min
same,postural impairment level,"[1]; 10 mg/kg oral, 1-2 h period of observation (2-3 h after treatment), P<0.01 cf. vehicle",absent-mild levels
same,increase in activity counts cf. vehicle,"[1]; 10 mg/kg oral, 1-2 h period of observation (2-3 h after treatment), P<0.05",62%
same,parkinsonian disability level,"[1]; 10 mg/kg oral, 1-2 h period of observation (2-3 h after treatment), P<0.05 cf. vehicle (mild-moderate levels)",absent-mild levels
same,total duration of ON-time (mean),"[1]; 10 mg/kg oral, 6 h observation",49 ± 48 min
same,bradykinesia level,"[1]; 10 mg/kg oral, first four hours of observation (1-5 h after administration), P<0.05 cf. vehicle (moderate-marked levels)",mild-moderate levels
same,increase in activity counts cf. vehicle,"[1]; 20 mg/kg oral, 1-2 h period of observation (2-3 h after treatment), P<0.01",63%
same,increase in activity counts cf. vehicle,"[1]; 20 mg/kg oral, 2-3 h period of observation, P<0.05",82%
same,total duration of ON-time (mean),"[1]; 20 mg/kg oral, 6 h observation",1 ± 1 min
same,dyskinesia,"[1]; 1, 10 or 20 mg/kg oral, 6 h observation, listed as Formula (i)",did not evoke dyskinesia; also recorded: All zero values
same,average postural impairment cumulated 0-3 h,"[1]; 1, 10 or 20 mg/kg oral, Friedman P=0.031, post-hoc Dunn's all P>0.05",significant effect of Formula (i) treatment
same,average bradykinesia cumulated 0-3 h,"[1]; 1, 10 or 20 mg/kg oral, Friedman P=0.034, post-hoc Dunn's all P>0.05",significant effect of DPI-289 treatment
same,average bradykinesia cumulated 3-6 h,[1]; [4],no significant effects
same,average parkinsonism cumulated over 0-3 h and 3-6 h,[1]; [4],no significant effect
same,average postural impairment cumulated 3-6 h,[1]; [4],no significant effects
same,average activity cumulated over 0-3 h and 3-6 h,"[1]; 1, 10 or 20 mg/kg oral, cf. vehicle",no significant effect
same,alertness,[1]; [5],no increase in levels of alertness
same,range of movement,[1]; [5],no reduction in levels of impaired range of movement
same,total duration of ON-time cf. vehicle,[1]; [5],no significant increase in total duration of ON-time
same,Good ON-time,[2]; [6],comparable ‘good’ time as that of the high dose of L-DOPA
same,alertness,[2]; [6],improvement in alertness value that mirrored that of the high dose of L-DOPA
same,parkinsonian disability,[2]; [6],even and consistent level of fairly mild parkinsonian disability
same,postural instability,[2]; [6],reduced postural instability from about 2 to 6 hours after the dosing
same,range of movement impairment,[2]; [6],reduced range of movement impairment than low dose L-DOPA alone but this difference did not reach statistical significance
same,motor activity,"[2]; DPI-289 20 mg/kg in combination with low-dose L-DOPA (about 10 to 11 mg/kg), cf. high dose L-DOPA",extended activity into four and five hours
same,dyskinesia,"[2]; DPI-289 20 mg/kg in combination with low-dose L-DOPA, cf. low-dose L-DOPA alone",no additional dyskinesia
same,BAD ON-time (ON-time with disabling dyskinesia),"[2]; DPI-289 20 mg/kg in combination with low-dose L-DOPA, relative to high dose L-DOPA",considerably less of ‘bad’ time
same,bradykinesia,"[2]; DPI-289 20 mg/kg in combination with low-dose L-DOPA, three to six hours after dosing",same level of bradykinesia as that of the high dose of L-DOPA
same,duration of effect on parkinsonian disability,[2]; DPI-289 20 mg/kg in combination with sub-therapeutic L-DOPA,at least 6 hours
same,"dyskinesia (abnormal involuntary movements, AIMs)",[3],did not elicit dyskinesia
same,postural asymmetry,[3],reduced or reversed the postural asymmetry
